Source: US8183409B2, “High yield and rapid synthesis methods for producing metallo-organic salts” (Osteologix A/S, priority 2004, dated 2012)

Conditions: pH 7.5

O=C([O-])/C=C\C(=O)[O-].[Sr+2] [Maleate, strontium maleate]
solubility in buffered solution compared with pure water: decreased solubility
